In patent US10918106B2, “Methods for hydraulic enhancement of crops” (Sound Agriculture Company, priority 2015, dated 2021):
“Also recorded” adds a separate entry of the source.

Legend:
Type in all cases: in vivo
tested plant = assay: Hydraulic enhancement test of plant growth regulators (gibberellins, cytokinins); settings: for hydraulic enhancement by gibberellins: FIG. 16
Description: Specific combinations of plant growth regulators (PGRs) were used for hydraulic enhancement and increased harvest yield of crops. PGRs were tested to be co-applied with strigolactones and/or AB compounds (e.g., AB01). PGRs were also tested in the absence of strigolactones and/or AB compounds. […] PGRs were tested as a seed treatment, soil drench, granule formulation, or foliar spray. […] In another experiment, the effect of hydraulic enhancement was also tested with cytokinins, including kinetin, zeatin, 6-benzylaminopurine (6-BAP), diphenylurea, thidiazuron, and their chemical derivatives and analogs.

[1] = tested on: corn (Zea mays) seedlings; assay: ex vivo hydraulic enhancement (xVHS) transpiration assay
Description: In this assay with corn (Zea mays), seedlings were grown in defined potting soil (in this case, Sunshine Mix #4) for 2 weeks until they were approximately 15 to 20 centimeters tall. Seedlings were then cut at the base of the stem and placed in individual tubes with defined volume of water (FIG. 4A). Hydraulic enhancing chemistry (for example, AB01) was present in the defined volume of water at various concentrations. Excised seedlings were placed in a defined temperature and humidity environment under continuous illumination, and water use was measured after 12, 18, or 24 hours. Using this assay, chemistry or other inputs that induce hydraulic enhancement can be tested and discovered. In this assay, 100 ng of AB01 in acetone was added to 2 week old corn seedlings and water use was monitored over 24 hours.

plant = assay: Hydraulic enhancement test of ABA biosynthesis inhibitor fluridone; settings: fluridone 1 μg (FIG. 15)
Description: Using this discovery, it could be reasoned that addition of inhibitors of ABA biosynthesis would result in increased hydraulic enhancement. In another experiment, fluridone was tested for its effect in hydraulic enhancement. Fluridone is an inhibitor of the phytoene destaturase, which is an upstream step in the synthesis of abscisic acid.

Compound	hydraulic enhancement by gibberellins (tested plant)	further results
c1ccc(CNc2ncnc3nc[nH]c23)cc1 [6-BAP, 6-benzylaminopurine]		hydraulic enhancement by cytokinin (tested plant; 1 μg (FIG. 17)): improved hydraulic enhancement; also recorded: elicit hydraulic enhancement
CC1=CC(Oc2c(C)occc2=O)OC1=O (stereo not drawn) [AB09, 2-methyl-3-((4-methyl-5-oxo-2,5-dihydrofuran-2-yl)oxy)-4H-pyran-4-one]		increase in transpiration ([1]; 10Ong added to the xVHS assay (FIG. 12)): 40%; ability to induce hydraulic enhancement ([1]; screen of AB compounds/strigolactones (FIG. 12)): able to induce hydraulic enhancement; also recorded: resulted in hydraulic enhancement of crop plants
C=C1C[C@]23C[C@H]1CC[C@H]2[C@@]12C=C[C@H](O)[C@@](C)(C(=O)O1)[C@H]2[C@@H]3C(=O)O [GA7]	hydraulic enhancement was elicited	
C=C1C[C@]23C[C@@]1(O)CC[C@H]2[C@@]12C=C[C@H](O)[C@@](C)(C(=O)O1)[C@H]2[C@@H]3C(=O)O [gibberellic acid]	improved hydraulic enhancement	
C=C1C[C@@]23CC[C@@H]4C(C)(C)CCC[C@@]4(C)[C@@H]2CC[C@@H]1C3 [ent-kaurene]	hydraulic enhancement was elicited	
C=C1C[C@]23C[C@@]1(O)CC[C@H]2[C@@]12CC[C@H](O)[C@@](C)(C(=O)O1)[C@H]2[C@@H]3C(=O)O [GA1]	hydraulic enhancement was elicited	
fluridone		effect on hydraulic enhancement (plant): improved hydraulic enhancement; also recorded: increase hydraulic enhancement
C=C1C[C@]23C[C@@]1(O)CC[C@H]2[C@@]12C=C[C@H](O)[C@@](C)(C(=O)O1)[C@H]2[C@@H]3C(=O)O [GA3]	hydraulic enhancement was elicited	
CC1=CC(=O)CC(C)(C)[C@@]1(O)/C=C/C(C)=C\C(=O)O [abscisic acid]		effect on hydraulic enhancement in the xVHS assay ([1]; addition of abscisic acid (FIG. 14)): inhibited hydraulic enhancement; also recorded: reduce the hydraulic enhancement
C=C1C[C@]23C[C@H]1CC[C@H]2[C@@]12CC[C@H](O)[C@@](C)(C(=O)O1)[C@H]2[C@@H]3C(=O)O [GA4]	hydraulic enhancement was elicited	
CC1CC23CC1CCC2C1(C)CCCC(C)(C)C1C3C (stereo not drawn) [ent-gibberellane]	hydraulic enhancement was elicited	
